Laboratory results taken from patent EP4768499A1, “MACROCYCLIC PEPTIDE COMPOUND HAVING CELL MEMBRANE PERMEABILITY AND METABOLIC STABILITY, AND LIBRARY CONTAINING SAME” (Chugai Seiyaku Kabushiki Kaisha, priority 2023, dated 2025).
Read-outs that look alike come from different tables or passages of the source. Starred links: 1 amine or outer side, 2 acyl side, 3 side chain; linkers in the order of their positions; H or OH if unused. Non-standard residues stand in square brackets, D forms with d. Residues, ends and D or L forms follow the SMILES beside them. *: point of attachment. NMedβ3hAla = C[C@H](CC(=O)[*:2])N(C)[*:1]; NMeF = CN[C@@H](Cc1ccccc1)C(=O)O; NMeGABA = CN(CCCC(=O)[*:2])[*:1]; NMeI = CC[C@H](C)[C@H](NC)C(=O)O; NMeT = CN[C@H](C(=O)O)[C@@H](C)O; hPhe = N[C@@H](CCc1ccccc1)C(=O)O; NMeβAla = CN(CCC(=O)[*:2])[*:1]; NMeL = CN[C@@H](CC(C)C)C(=O)O; NMeV = CN[C@H](C(=O)O)C(C)C; d(β3hA) = C[C@@H](N)CC(=O)O; NMeAbu = CC[C@H](NC)C(=O)O; NMeA = CN[C@@H](C)C(=O)O; dNMeA = CN[C@H](C)C(=O)O; Abu = CC[C@H](N)C(=O)O; βAla = NCCC(=O)O; Sar = CNCC(=O)O; tBu = CC(C)(C)*

Assays:
[1] = Metabolic stability test: liver microsomal stability assay; format: in vitro ADME, mouse; conditions: for microsomal CLint at 1 µM: male, pH 7.4, presence of NADPH, read-out: Mouse Hepatic Microsome CLh,int NADPH(+)
[2] = Membrane permeability test using Caco-2 cells with preincubation; format: in vitro ADME; conditions: Caco-2
Caco-2 cells = assay: as above; format: in vitro ADME
[3] = mouse liver microsomes 0.5 mg protein/mL, compound 1 µM
[4] = mouse liver microsomes 0.5 mg protein/mL, compound 1 µM, absence of NADPH
[5] = preincubation 20 to 24 hours, Apical FaSSIF/HBSS pH 6.0, Basal HBSS 4% BSA pH 7.4, 180 minutes, read-out: Caco2 Papp
[6] = Caco-2 cells, preincubation 20 to 24 hours, apical FaSSIF/HBSS 1% DMSO pH 6.0, basal HBSS 4% BSA pH 7.4, basal sample at 180 minutes

| Compound | microsomal CLint at 1 µM [1, 3] [µL/min/mg] | Mouse Hepatic Microsome CLh,int NADPH(-) [1, 4] [µL/min/mg Protein] | Papp A→B [2, 5] [×10⁻⁶ cm/s] | Caco2 Papp (10^-6 cm/sec) (Caco-2 cells; [6]) | Mouse Hepatic Microsome CLh,int NADPH(-) [1] [µL/min/mg Protein] | Papp A→B [2] [×10⁻⁶ cm/s] | Caco2 Papp (10^-6 cm/sec) (Caco-2 cells; Caco-2) |
| --- | --- | --- | --- | --- | --- | --- | --- |
| CC[C@@H]1NC(=O)[C@H](C)N(C)C(=O)[C@H](C(C)C)N(C)C(=O)[C@H]([C@@H](C)CC)NC(=O)[C@H](C)N(C)C(=O)CCCN(C)C(=O)C[C@@H](C)NC(=O)[C@H](C(C)C)N(C)C(=O)[C@H](CCc2ccccc2)NC(=O)CCN(C)C(=O)[C@H]([C@@H](C)O)N(C)C(=O)[C@H](CC(C)C)N(C)C(=O)[C@H]([C@@H](C)CC)NC(=O)[C@H](Cc2ccccc2)N(C)C1=O [pd055] (cyclo([Abu][NMeF]I[NMeL][NMeT][NMeβAla][hPhe][NMeV][d(β3hA)][NMeGABA][NMeA]I[NMeV][NMeA])) | 27.1 | 15.0 | 0.12 | 0.12 10^-6 cm/sec |  |  |  |
| CC[C@H](C)[C@@H]1NC(=O)[C@H](CC(C)C)N(C)C(=O)[C@H](CC(C)C)NC(=O)[C@H](C)N(C)C(=O)[C@H](Cc2ccccc2)N(C)C(=O)[C@@H]2CCCN2C(=O)[C@H](CC(C)C)N(C)C(=O)[C@H](CCc2ccccc2)NC(=O)CCN(C)C(=O)C[C@@H](C)NC(=O)[C@H](CC(C)C)N(C)C(=O)[C@H]([C@@H](C)O)NC(=O)[C@H](C)N(C)C(=O)[C@H](C(C)C)N(C)C1=O [pd056] (cyclo(I[NMeV][NMeA]T[NMeL][d(β3hA)][NMeβAla][hPhe][NMeL]P[NMeF][NMeA]L[NMeL])) | 55.9 | 30.2 | 0.27 | 0.27 10^-6 cm/sec |  |  |  |
| CC[C@H]1C(=O)N[C@@H](COC(C)(C)C)C(=O)N(C)[C@@H](Cc2ccccc2)C(=O)N(C)[C@@H](C(C)C)C(=O)N[C@H](C)CC(=O)N(C)[C@H](C)C(=O)N(C)[C@@H](CC(C)C)C(=O)N(C)[C@@H](C(C)C)C(=O)N2CCC[C@H]2C(=O)N[C@@H](C(C)C)C(=O)N(C)[C@@H](Cc2ccccc2)C(=O)N[C@@H]([C@@H](C)O)C(=O)N(C)[C@@H](CC(C)C)C(=O)N(C)[C@@H](C)C(=O)N1C [pd058] (cyclo([NMeA][NMeAbu]S(tBu)[NMeF][NMeV][d(β3hA)][dNMeA][NMeL][NMeV]PV[NMeF]T[NMeL])) | 16.3 | 14.8 | 0.72 | 0.72 10^-6 cm/sec |  |  |  |
| CC[C@H](C)[C@@H]1NC(=O)[C@H](C)N(C)C(=O)CCCN(C)C(=O)C[C@@H](C)NC(=O)[C@H](C(C)C)N(C)C(=O)[C@H](CC(C)C)N(C)C(=O)[C@H](C)N(C)C(=O)[C@H]([C@@H](C)O)N(C)C(=O)[C@H](CCc2ccccc2)NC(=O)[C@H](C(C)C)NC(=O)[C@H](Cc2ccccc2)N(C)C(=O)[C@H](CC)N(C)C(=O)[C@H](C)N(C)C(=O)[C@H](C(C)C)N(C)C1=O [pd059] (cyclo(I[NMeV][NMeA][NMeAbu][NMeF]V[hPhe][NMeT][NMeA][NMeL][NMeV][d(β3hA)][NMeGABA][NMeA])) | 12.7 | 18.6 | 0.52 | 0.52 10^-6 cm/sec |  |  |  |
| CC[C@H](C)[C@@H]1NC(=O)[C@H](CC(C)C)N(C)C(=O)C[C@@H](C)NC(=O)[C@H](C(C)C)N(C)C(=O)[C@H](COC(C)(C)C)NC(=O)[C@H](CC)N(C)C(=O)[C@H](Cc2ccccc2)N(C)C(=O)[C@H](CC(C)C)NC(=O)[C@@H]2CCCN2C(=O)[C@H]([C@@H](C)O)N(C)C(=O)[C@H](CC(C)C)N(C)C(=O)[C@H](CC)N(C)C(=O)[C@H](C(C)C)N(C)C(=O)[C@H](CC(C)C)N(C)C1=O [pd061] (cyclo(I[NMeL][NMeV][NMeAbu][NMeL][NMeT]PL[NMeF][NMeAbu]S(tBu)[NMeV][d(β3hA)][NMeL])) | 39 | 39.7 | 0.51 | 0.51 10^-6 cm/sec |  |  |  |
| CC[C@@H]1NC(=O)[C@H](CC(C)C)N(C)C(=O)CCNC(=O)[C@H](Cc2ccccc2)N(C)C(=O)[C@H](Cc2ccccc2)N(C)C(=O)CNC(=O)[C@H]([C@@H](C)CC)NC(=O)[C@H](CC(C)C)N(C)C(=O)CCCN(C)C(=O)C[C@@H](C)N(C)C(=O)[C@H](CC(C)C)NC(=O)[C@H]([C@@H](C)CC)NC(=O)[C@H](C)N(C)C(=O)[C@H](C(C)C)NC1=O [pd062] (cyclo([Abu]V[NMeA]IL[NMedβ3hAla][NMeGABA][NMeL]IG[NMeF][NMeF][βAla][NMeL])) |  |  |  |  | 24.1 | < 0.11 | <0.11 10^-6 cm/sec |
| CC[C@@H]1NC(=O)[C@H](CC(C)C)N(C)C(=O)[C@H](COC(C)(C)C)NC(=O)[C@H]([C@@H](C)CC)NC(=O)[C@H](Cc2ccccc2)N(C)C(=O)CNC(=O)[C@H]([C@@H](C)CC)NC(=O)[C@H](CC(C)C)N(C)C(=O)CCCN(C)C(=O)C[C@@H](C)N(C)C(=O)[C@H](CC(C)C)NC(=O)[C@H](C)N(C)C(=O)[C@H](Cc2ccccc2)N(C)C(=O)[C@H](C(C)C)NC1=O [pd063] (cyclo([Abu]V[NMeF][NMeA]L[NMedβ3hAla][NMeGABA][NMeL]IG[NMeF]IS(tBu)[NMeL])) | 47.5 | 33.7 | 0.03 | 0.03 10^-6 cm/sec |  |  |  |
| CC[C@@H]1NC(=O)[C@H](C(C)C)NC(=O)[C@H]([C@@H](C)CC)N(C)C(=O)[C@H](CCc2ccccc2)NC(=O)[C@H](Cc2ccccc2)N(C)C(=O)[C@H]([C@@H](C)CC)NC(=O)[C@H](CC(C)C)N(C)C(=O)[C@H](CC(C)C)NC(=O)CCN(C)C(=O)C[C@@H](C)N(C)C(=O)[C@H](CC(C)C)N(C)C(=O)CNC(=O)[C@@H]2CCCN2C(=O)[C@H](CC(C)C)N(C)C1=O [pd064] (cyclo([Abu][NMeL]PG[NMeL][NMedβ3hAla][NMeβAla]L[NMeL]I[NMeF][hPhe][NMeI]V)) | 41.4 | 43.3 | 0.04 | 0.04 10^-6 cm/sec |  |  |  |
| CC[C@@H]1NC(=O)[C@H](CC(C)C)N(C)C(=O)[C@H](COC(C)(C)C)NC(=O)[C@H]([C@@H](C)CC)N(C)C(=O)[C@H](CCc2ccccc2)NC(=O)[C@H](Cc2ccccc2)N(C)C(=O)[C@H]([C@@H](C)CC)NC(=O)[C@H](CC(C)C)N(C)C(=O)[C@H](CC(C)C)N(C)C(=O)CCN(C)C(=O)C[C@@H](C)N(C)C(=O)CN(C)C(=O)[C@H](CC(C)C)N(C)C(=O)[C@@H]2CCCN2C1=O [pd066] (cyclo([Abu]P[NMeL][Sar][NMedβ3hAla][NMeβAla][NMeL][NMeL]I[NMeF][hPhe][NMeI]S(tBu)[NMeL])) | 38.9 | 36.4 | 0.33 | 0.33 10^-6 cm/sec |  |  |  |
| CC[C@@H]1NC(=O)[C@@H]2CCCN2C(=O)[C@H](CC(C)C)N(C)C(=O)[C@H](C(C)C)NC(=O)[C@H](CC(C)C)N(C)C(=O)[C@H]([C@@H](C)O)NC(=O)[C@H](Cc2ccccc2)N(C)C(=O)CN(C)C(=O)C[C@@H](C)N(C)C(=O)[C@H](C(C)C)NC(=O)[C@H](COC(C)(C)C)NC(=O)[C@H](C)N(C)C(=O)[C@H](CC(C)C)NC(=O)[C@H](Cc2ccccc2)N(C)C1=O [pd067] (cyclo([Abu][NMeF]L[NMeA]S(tBu)V[NMedβ3hAla][Sar][NMeF]T[NMeL]V[NMeL]P)) | 17 | 10.8 | < 0.12 | <0.12 10^-6 cm/sec |  |  |  |
| CC[C@@H]1NC(=O)[C@H](C(C)C)N(C)C(=O)[C@H](C)N(C)C(=O)[C@H](C(C)C)N(C)C(=O)[C@H](CC)N(C)C(=O)[C@H](Cc2ccccc2)N(C)C(=O)[C@H]([C@@H](C)O)N(C)C(=O)CNC(=O)[C@H](CC(C)C)N(C)C(=O)[C@H](C(C)C)NC(=O)[C@H](COC(C)(C)C)NC(=O)[C@H](CC(C)C)N(C)C(=O)[C@@H](C(C)C)NC(=O)C[C@@H](C)N(C)C1=O [pd068] (cyclo([Abu][NMedβ3hAla][dV][NMeL]S(tBu)V[NMeL]G[NMeT][NMeF][NMeAbu][NMeV][NMeA][NMeV])) | 15.7 | 12.5 | 0.27 | 0.27 10^-6 cm/sec |  |  |  |
| CC[C@@H]1NC(=O)[C@H]([C@@H](C)O)NC(=O)[C@H](Cc2ccccc2)N(C)C(=O)[C@H](CC(C)C)N(C)C(=O)[C@H](C(C)C)NC(=O)[C@H]([C@@H](C)CC)N(C)C(=O)[C@H]([C@@H](C)CC)NC(=O)[C@H](CC(C)C)N(C)C(=O)[C@H](C)N(C)C(=O)[C@H](C)NC(=O)C[C@@H](C)N(C)C(=O)[C@H](CC(C)C)N(C)C(=O)[C@H](C)N(C)C(=O)CN(C)C1=O [pd069] (cyclo(A[NMeA][NMeL]I[NMeI]V[NMeL][NMeF]T[Abu][Sar][NMeA][NMeL][NMedβ3hAla])) | 16.5 | 20.5 | < 0.08 | <0.08 10^-6 cm/sec |  |  |  |
| CC[C@@H]1NC(=O)[C@H](Cc2ccccc2)N(C)C(=O)[C@@H]2CCCN2C(=O)[C@H](CC(C)C)N(C)C(=O)[C@H](CC)NC(=O)[C@H](C(C)C)NC(=O)[C@H](CC(C)C)N(C)C(=O)[C@H]([C@@H](C)O)NC(=O)[C@H](Cc2ccccc2)N(C)C(=O)CN(C)C(=O)C[C@@H](C)N(C)C(=O)[C@H](C(C)C)NC(=O)[C@H](CC)N(C)C(=O)[C@H](C)N(C)C1=O [pd070] (cyclo([Abu][NMeA][NMeAbu]V[NMedβ3hAla][Sar][NMeF]T[NMeL]V[Abu][NMeL]P[NMeF])) | 15 | 14.6 | 0.03 | 0.03 10^-6 cm/sec |  |  |  |
